Source: patent publication US10351548B2, “2-oxo-1,2-dihydropyridine-3-carboxamide compounds and their use as inhibitors of PDK1” (INTERNATIONAL SOCIETY FOR DRUG DEVELOPMENT S.R.L., priority 2015, dated 2019)
Like-named read-outs stand apart in the source and are kept apart here.

Experiments:
Assay type in all cases: biochemical
BTK = BTK (Homo sapiens (Human), UniProt Q06187); assay: IB35 kinases profiling at 100 nM (ZLYTE); conditions: IB35 100 nM, ATP Km app
Source text: (§1) The results are reported below

PRKCD (PKC delta) = PRKCD (PKC delta) (Homo sapiens (Human), UniProt Q05655); assay: IB35 kinases profiling at 100 nM (ZLYTE); conditions: IB35 100 nM, ATP Km app
Source text: as §1

CHEK2 (CHK2) = CHEK2 (CHK2) (Homo sapiens (Human), UniProt O96017); assay: IB35 kinases profiling at 100 nM (ZLYTE); conditions: IB35 100 nM, ATP Km app
Source text: as §1

SRC = SRC (Homo sapiens (Human), UniProt P12931); assay: IB35 kinases profiling at 100 nM (ZLYTE); conditions: IB35 100 nM, ATP Km app
Sequence of SRC (P12931 whole entry, looked up, species assumed): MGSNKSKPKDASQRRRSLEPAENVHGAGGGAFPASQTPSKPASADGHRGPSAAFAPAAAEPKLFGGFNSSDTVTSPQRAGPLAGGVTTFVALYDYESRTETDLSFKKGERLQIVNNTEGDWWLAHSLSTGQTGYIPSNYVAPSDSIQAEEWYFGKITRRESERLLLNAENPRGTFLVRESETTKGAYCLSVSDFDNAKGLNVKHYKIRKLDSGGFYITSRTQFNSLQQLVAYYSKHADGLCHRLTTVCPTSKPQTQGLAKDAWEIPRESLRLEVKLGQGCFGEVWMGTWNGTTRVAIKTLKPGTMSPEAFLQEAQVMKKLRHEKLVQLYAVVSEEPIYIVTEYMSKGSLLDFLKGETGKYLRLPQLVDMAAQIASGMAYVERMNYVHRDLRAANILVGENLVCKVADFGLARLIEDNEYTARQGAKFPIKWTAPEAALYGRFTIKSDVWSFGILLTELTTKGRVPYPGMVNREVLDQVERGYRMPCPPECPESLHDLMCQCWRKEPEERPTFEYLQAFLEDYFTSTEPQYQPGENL
Source text: as §1

CAMK2A (CaMKII alpha) = CAMK2A (CaMKII alpha) (Homo sapiens (Human), UniProt Q9UQM7); assay: IB35 kinases profiling at 100 nM (ZLYTE); conditions: IB35 100 nM, ATP Km app
Source text: as §1

ROCK2 = ROCK2 (Homo sapiens (Human), UniProt O75116); assay: IB35 kinases profiling at 100 nM (ZLYTE); conditions: IB35 100 nM, ATP Km app
Sequence of ROCK2 (O75116 whole entry, species assumed): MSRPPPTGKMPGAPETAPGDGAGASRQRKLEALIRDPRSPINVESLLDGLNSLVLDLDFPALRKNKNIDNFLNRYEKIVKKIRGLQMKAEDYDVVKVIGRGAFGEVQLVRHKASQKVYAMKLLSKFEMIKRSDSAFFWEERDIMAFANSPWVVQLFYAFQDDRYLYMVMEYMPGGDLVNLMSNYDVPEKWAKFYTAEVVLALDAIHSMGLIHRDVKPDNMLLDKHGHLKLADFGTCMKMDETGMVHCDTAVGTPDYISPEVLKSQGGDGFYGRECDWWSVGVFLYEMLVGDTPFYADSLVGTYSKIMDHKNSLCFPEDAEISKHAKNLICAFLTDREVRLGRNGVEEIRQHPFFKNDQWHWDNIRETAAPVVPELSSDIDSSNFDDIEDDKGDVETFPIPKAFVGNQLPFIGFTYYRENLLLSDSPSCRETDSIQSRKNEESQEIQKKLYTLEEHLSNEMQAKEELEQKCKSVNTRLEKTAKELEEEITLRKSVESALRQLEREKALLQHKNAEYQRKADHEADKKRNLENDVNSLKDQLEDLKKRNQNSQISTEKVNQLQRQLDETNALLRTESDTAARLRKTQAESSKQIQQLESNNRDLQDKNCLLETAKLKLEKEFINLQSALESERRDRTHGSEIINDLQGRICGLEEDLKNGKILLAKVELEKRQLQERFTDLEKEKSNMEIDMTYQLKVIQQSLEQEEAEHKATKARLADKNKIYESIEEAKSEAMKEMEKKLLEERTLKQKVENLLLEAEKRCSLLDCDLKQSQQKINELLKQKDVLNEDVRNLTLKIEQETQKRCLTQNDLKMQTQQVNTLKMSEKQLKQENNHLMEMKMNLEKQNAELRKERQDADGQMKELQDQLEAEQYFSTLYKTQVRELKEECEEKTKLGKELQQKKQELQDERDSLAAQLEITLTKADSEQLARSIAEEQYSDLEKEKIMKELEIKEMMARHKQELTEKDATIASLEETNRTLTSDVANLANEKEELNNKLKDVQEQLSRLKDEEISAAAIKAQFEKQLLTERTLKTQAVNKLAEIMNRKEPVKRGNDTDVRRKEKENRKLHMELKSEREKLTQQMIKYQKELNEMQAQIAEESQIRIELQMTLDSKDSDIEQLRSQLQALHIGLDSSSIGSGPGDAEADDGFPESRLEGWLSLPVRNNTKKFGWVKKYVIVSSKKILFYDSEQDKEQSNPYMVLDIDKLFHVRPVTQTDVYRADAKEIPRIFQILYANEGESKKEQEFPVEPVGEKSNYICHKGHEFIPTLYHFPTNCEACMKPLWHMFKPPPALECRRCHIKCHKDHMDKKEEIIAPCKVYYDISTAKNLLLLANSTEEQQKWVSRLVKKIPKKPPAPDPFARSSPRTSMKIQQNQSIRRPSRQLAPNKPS
Source text: as §1

MAPKAPK2 = MAPKAPK2 (Homo sapiens (Human), UniProt P49137); assay: IB35 kinases profiling at 100 nM (ZLYTE); conditions: IB35 100 nM, ATP Km app
Source text: as §1

MARK1 (MARK) = MARK1 (MARK) (Homo sapiens (Human), UniProt Q9P0L2); assay: IB35 kinases profiling at 100 nM (ZLYTE); conditions: IB35 100 nM, ATP Km app
Source text: as §1

AKT1 (PKB alpha) = AKT1 (PKB alpha) (Homo sapiens (Human), UniProt P31749); assay: IB35 kinases profiling at 100 nM (ZLYTE); conditions: IB35 100 nM, ATP Km app
Source text: as §1

MAPK9 (JNK2) = MAPK9 (JNK2) (Homo sapiens (Human), UniProt P45984); assay: IB35 kinases profiling at 100 nM (ZLYTE); conditions: IB35 100 nM, ATP 100
Source text: as §1

FRAP1 (mTOR) = FRAP1 (mTOR) (Homo sapiens (Human), UniProt P42345); assay: IB35 kinases profiling at 100 nM (ZLYTE); conditions: IB35 100 nM, ATP Km app
Source text: as §1

PRKACA (PKA) = PRKACA (PKA) (Homo sapiens (Human), UniProt P17612); assay: IB35 kinases profiling at 100 nM (ZLYTE); conditions: IB35 100 nM, ATP Km app
Source text: as §1

PRKCZ (PKC zeta) = PRKCZ (PKC zeta) (Homo sapiens (Human), UniProt Q05513); assay: IB35 kinases profiling at 100 nM (ZLYTE); conditions: IB35 100 nM, ATP Km app
Source text: as §1

AMPK A2/B1/G1 = AMPK A2/B1/G1 (Homo sapiens (Human), UniProt P54646); assay: IB35 kinases profiling at 100 nM (ZLYTE); conditions: IB35 100 nM, ATP Km app
Source text: as §1

CDK5/p35 = CDK5/p35 (Homo sapiens (Human), UniProt Q00535); assay: IB35 kinases profiling at 100 nM (ZLYTE); conditions: IB35 100 nM, ATP Km app
Source text: as §1

JAK1 = JAK1 (Homo sapiens (Human), UniProt P23458); assay: IB35 kinases profiling at 100 nM (ZLYTE); conditions: IB35 100 nM, ATP Km app
Source text: as §1

CLK1 = CLK1 (Homo sapiens (Human), UniProt P49759); assay: IB35 kinases profiling at 100 nM (ZLYTE); conditions: IB35 100 nM, ATP Km app
Source text: as §1

GRK5 = GRK5 (Homo sapiens (Human), UniProt P34947); assay: IB35 kinases profiling at 100 nM (ZLYTE); conditions: IB35 100 nM, ATP Km app
Source text: as §1

AKT3 (PKB gamma) = AKT3 (PKB gamma) (Homo sapiens (Human), UniProt Q9Y243); assay: IB35 kinases profiling at 100 nM (ZLYTE); conditions: IB35 100 nM, ATP Km app
Source text: as §1

CHEK1 (CHK1) = CHEK1 (CHK1) (Homo sapiens (Human), UniProt O14757); assay: IB35 kinases profiling at 100 nM (ZLYTE); conditions: IB35 100 nM, ATP Km app
Source text: as §1

RPS6KB1 (p70S6K) = RPS6KB1 (p70S6K) (Homo sapiens (Human), UniProt P23443); assay: IB35 kinases profiling at 100 nM (ZLYTE); conditions: IB35 100 nM, ATP Km app
Sequence of RPS6KB1 (p70S6K) (P23443 whole entry, species assumed): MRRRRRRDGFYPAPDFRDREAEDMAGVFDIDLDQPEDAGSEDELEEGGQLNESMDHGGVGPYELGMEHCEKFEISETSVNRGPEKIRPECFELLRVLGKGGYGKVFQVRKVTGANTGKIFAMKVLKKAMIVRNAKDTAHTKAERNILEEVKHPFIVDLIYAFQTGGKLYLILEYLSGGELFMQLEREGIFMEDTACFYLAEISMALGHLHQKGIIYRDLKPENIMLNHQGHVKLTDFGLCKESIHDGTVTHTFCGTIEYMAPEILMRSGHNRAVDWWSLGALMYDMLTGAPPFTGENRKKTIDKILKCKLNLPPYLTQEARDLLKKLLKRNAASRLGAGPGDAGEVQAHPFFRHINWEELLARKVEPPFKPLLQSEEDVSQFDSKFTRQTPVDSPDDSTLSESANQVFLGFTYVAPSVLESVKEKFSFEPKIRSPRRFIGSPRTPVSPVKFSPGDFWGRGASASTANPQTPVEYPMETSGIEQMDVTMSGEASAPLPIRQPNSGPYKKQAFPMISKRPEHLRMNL
Source text: as §1

IRAK4 = IRAK4 (Homo sapiens (Human), UniProt Q9NWZ3); assay: IB35 kinases profiling at 100 nM (ZLYTE); conditions: IB35 100 nM, ATP Km app
Source text: as §1

CDK1/cyclin B = CDK1/cyclin B (Homo sapiens (Human), UniProt P06493); assay: IB35 kinases profiling at 100 nM (ZLYTE); conditions: IB35 100 nM, ATP Km app
Source text: as §1

ITK = ITK (Homo sapiens (Human), UniProt Q08881); assay: IB35 kinases profiling at 100 nM (ZLYTE); conditions: IB35 100 nM, ATP Km app
Sequence of ITK (Q08881 whole entry, species assumed): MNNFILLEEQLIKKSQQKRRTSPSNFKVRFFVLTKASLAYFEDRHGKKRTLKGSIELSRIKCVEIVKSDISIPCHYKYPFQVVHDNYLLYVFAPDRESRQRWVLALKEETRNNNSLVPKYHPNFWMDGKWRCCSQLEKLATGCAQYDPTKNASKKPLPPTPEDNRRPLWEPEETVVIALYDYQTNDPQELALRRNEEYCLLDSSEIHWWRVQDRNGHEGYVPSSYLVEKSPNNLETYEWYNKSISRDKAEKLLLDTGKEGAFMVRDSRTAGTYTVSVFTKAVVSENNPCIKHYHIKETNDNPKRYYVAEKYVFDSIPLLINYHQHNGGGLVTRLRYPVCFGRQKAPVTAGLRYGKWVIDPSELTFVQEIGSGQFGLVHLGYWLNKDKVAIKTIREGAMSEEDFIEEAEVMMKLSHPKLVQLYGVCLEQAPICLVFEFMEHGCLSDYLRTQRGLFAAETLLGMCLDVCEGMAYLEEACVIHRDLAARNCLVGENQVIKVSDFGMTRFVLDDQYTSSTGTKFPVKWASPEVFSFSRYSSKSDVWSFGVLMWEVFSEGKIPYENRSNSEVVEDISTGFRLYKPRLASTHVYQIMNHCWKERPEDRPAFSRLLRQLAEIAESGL
Source text: as §1

PI4KB (PI4K beta) = PI4KB (PI4K beta) (Homo sapiens (Human), UniProt Q9UBF8); assay: IB35 kinases profiling at 100 nM (Adapta); conditions: IB35 100 nM, ATP Km app
Source text: as §1

[1] = biological target: PIK3CD/PIK3R1 (p110 delta/p85 alpha) (Homo sapiens (Human), UniProt O00329); assay: IB35 kinases profiling at 100 nM (Adapta); conditions: IB35 100 nM, ATP Km app
Source text: as §1

CDK9/cyclin T1 = CDK9/cyclin T1 (Homo sapiens (Human), UniProt P50750); assay: IB35 kinases profiling at 100 nM (Adapta); conditions: IB35 100 nM, ATP Km app
Sequence of CDK9/cyclin T1 (P50750 whole entry): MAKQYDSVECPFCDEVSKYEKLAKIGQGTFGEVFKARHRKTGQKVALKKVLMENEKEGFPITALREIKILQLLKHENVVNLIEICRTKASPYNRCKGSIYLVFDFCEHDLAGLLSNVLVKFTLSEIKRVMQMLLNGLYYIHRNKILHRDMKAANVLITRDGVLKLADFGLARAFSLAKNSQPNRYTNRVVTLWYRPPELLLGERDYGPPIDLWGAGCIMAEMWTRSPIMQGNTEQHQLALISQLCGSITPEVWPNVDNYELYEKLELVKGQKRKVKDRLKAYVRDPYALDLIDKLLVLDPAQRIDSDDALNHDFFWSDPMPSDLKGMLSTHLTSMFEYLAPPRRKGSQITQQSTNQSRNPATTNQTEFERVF
Sequence of CDK9/cyclin T1 (O60563 whole entry partner): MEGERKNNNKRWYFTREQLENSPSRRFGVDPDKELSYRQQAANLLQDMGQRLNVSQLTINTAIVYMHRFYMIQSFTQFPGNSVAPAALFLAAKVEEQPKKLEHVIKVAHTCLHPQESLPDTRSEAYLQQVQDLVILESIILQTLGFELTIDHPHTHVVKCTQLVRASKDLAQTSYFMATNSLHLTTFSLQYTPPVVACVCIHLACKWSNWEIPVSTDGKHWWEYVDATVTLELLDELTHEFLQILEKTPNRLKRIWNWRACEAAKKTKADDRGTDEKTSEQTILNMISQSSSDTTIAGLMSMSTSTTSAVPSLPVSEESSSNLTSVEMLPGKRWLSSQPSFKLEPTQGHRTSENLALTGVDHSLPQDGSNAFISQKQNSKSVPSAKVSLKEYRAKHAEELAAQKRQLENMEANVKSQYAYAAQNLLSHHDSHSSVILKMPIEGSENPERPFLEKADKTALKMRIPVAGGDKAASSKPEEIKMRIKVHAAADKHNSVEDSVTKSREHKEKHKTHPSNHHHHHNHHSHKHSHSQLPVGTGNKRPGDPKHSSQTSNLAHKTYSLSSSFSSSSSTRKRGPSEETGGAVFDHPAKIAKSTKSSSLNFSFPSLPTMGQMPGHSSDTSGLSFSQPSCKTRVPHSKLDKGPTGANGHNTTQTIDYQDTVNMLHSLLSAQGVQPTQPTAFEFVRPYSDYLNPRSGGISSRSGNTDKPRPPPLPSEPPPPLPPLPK
Source text: as §1

Sequence of BTK (Q06187 whole entry): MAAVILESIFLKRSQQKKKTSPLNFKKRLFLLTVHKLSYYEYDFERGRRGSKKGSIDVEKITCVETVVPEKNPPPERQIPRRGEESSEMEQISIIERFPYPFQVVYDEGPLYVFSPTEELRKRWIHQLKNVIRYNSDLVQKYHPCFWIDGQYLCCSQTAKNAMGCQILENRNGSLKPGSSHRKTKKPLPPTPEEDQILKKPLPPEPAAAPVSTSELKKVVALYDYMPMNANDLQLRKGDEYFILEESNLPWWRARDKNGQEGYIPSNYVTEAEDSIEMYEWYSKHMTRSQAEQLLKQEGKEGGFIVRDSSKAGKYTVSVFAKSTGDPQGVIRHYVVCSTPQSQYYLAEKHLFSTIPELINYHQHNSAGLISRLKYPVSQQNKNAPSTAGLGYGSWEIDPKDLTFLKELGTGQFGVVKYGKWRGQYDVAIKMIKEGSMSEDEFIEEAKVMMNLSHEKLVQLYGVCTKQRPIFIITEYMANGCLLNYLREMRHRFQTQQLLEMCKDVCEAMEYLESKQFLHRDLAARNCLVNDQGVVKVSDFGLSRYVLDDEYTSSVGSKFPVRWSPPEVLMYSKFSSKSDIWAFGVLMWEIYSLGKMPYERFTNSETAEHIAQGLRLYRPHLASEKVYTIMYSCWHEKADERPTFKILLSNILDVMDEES

O=C(CNC(=O)c1cccn(Cc2ccc(F)c(F)c2)c1=O)Nc1ccc2c(c1)/C(=C/c1cnc[nH]1)C(=O)N2 [IB35, (Z)—N-(2-((3-((1H-imidazol-5-yl)methylene)-2-oxoindolin-5-yl)amino)-2-oxoethyl)-1-(3,4-difluorobenzyl)-2-oxo-1,2-dihydro pyridine-3-carboxamide]
inhibition at 0.1 µM (BTK; read-out: % Inhibition 1): -4%
inhibition at 0.1 µM (BTK; read-out: % Inhibition 2): -2%
inhibition at 0.1 µM (BTK; read-out: % Inhibition Avg): -3%
inhibition at 0.1 µM (PRKCD (PKC delta); read-out: % Inhibition 1): -2%
inhibition at 0.1 µM (PRKCD (PKC delta); read-out: % Inhibition 2): -12%
inhibition at 0.1 µM (PRKCD (PKC delta); read-out: % Inhibition Avg): -7%
inhibition at 0.1 µM (CHEK2 (CHK2); read-out: % Inhibition 1): 1%
inhibition at 0.1 µM (CHEK2 (CHK2); read-out: % Inhibition 2): 8%
inhibition at 0.1 µM (CHEK2 (CHK2); read-out: % Inhibition Avg): 4%
inhibition at 0.1 µM (SRC; read-out: % Inhibition 1): 8%
inhibition at 0.1 µM (SRC; read-out: % Inhibition 2): 6%
inhibition at 0.1 µM (SRC; read-out: % Inhibition Avg): 7%
inhibition at 0.1 µM (CAMK2A (CaMKII alpha); read-out: % Inhibition 1): -1%
inhibition at 0.1 µM (CAMK2A (CaMKII alpha); read-out: % Inhibition 2): 2%
inhibition at 0.1 µM (CAMK2A (CaMKII alpha); read-out: % Inhibition Avg): 0%
inhibition at 0.1 µM (ROCK2; read-out: % Inhibition 1): 3%
inhibition at 0.1 µM (ROCK2; read-out: % Inhibition 2): 1%
inhibition at 0.1 µM (ROCK2; read-out: % Inhibition Avg): 2%
inhibition at 0.1 µM (MAPKAPK2; read-out: % Inhibition 1): -2%
inhibition at 0.1 µM (MAPKAPK2; read-out: % Inhibition 2): 2%
inhibition at 0.1 µM (MAPKAPK2; read-out: % Inhibition Avg): 0%
inhibition at 0.1 µM (MARK1 (MARK); read-out: % Inhibition 1): 20%
inhibition at 0.1 µM (MARK1 (MARK); read-out: % Inhibition 2): 13%
inhibition at 0.1 µM (MARK1 (MARK); read-out: % Inhibition Avg): 17%
inhibition at 0.1 µM (AKT1 (PKB alpha); read-out: % Inhibition 1): -6%
inhibition at 0.1 µM (AKT1 (PKB alpha); read-out: % Inhibition 2): -9%
inhibition at 0.1 µM (AKT1 (PKB alpha); read-out: % Inhibition Avg): -8%
inhibition at 0.1 µM (MAPK9 (JNK2); read-out: % Inhibition 1): 3%
inhibition at 0.1 µM (MAPK9 (JNK2); read-out: % Inhibition 2): -5%
inhibition at 0.1 µM (MAPK9 (JNK2); read-out: % Inhibition Avg): -1%
inhibition at 0.1 µM (FRAP1 (mTOR); read-out: % Inhibition 1): -10%
inhibition at 0.1 µM (FRAP1 (mTOR); read-out: % Inhibition 2): -18%
inhibition at 0.1 µM (FRAP1 (mTOR); read-out: % Inhibition Avg): -14%
inhibition at 0.1 µM (PRKACA (PKA); read-out: % Inhibition 1): -5%
inhibition at 0.1 µM (PRKACA (PKA); read-out: % Inhibition 2): -5%
inhibition at 0.1 µM (PRKACA (PKA); read-out: % Inhibition Avg): -5%
inhibition at 0.1 µM (PRKCZ (PKC zeta); read-out: % Inhibition 1): -3%
inhibition at 0.1 µM (PRKCZ (PKC zeta); read-out: % Inhibition 2): -2%
inhibition at 0.1 µM (PRKCZ (PKC zeta); read-out: % Inhibition Avg): -3%
inhibition at 0.1 µM (AMPK A2/B1/G1; read-out: % Inhibition 1): 10%
inhibition at 0.1 µM (AMPK A2/B1/G1; read-out: % Inhibition 2): 11%
inhibition at 0.1 µM (AMPK A2/B1/G1; read-out: % Inhibition Avg): 10%
inhibition at 0.1 µM (CDK5/p35; read-out: % Inhibition 1): -2%
inhibition at 0.1 µM (CDK5/p35; read-out: % Inhibition 2): 6%
inhibition at 0.1 µM (CDK5/p35; read-out: % Inhibition Avg): 2%
inhibition at 0.1 µM (JAK1; read-out: % Inhibition 1): -10%
inhibition at 0.1 µM (JAK1; read-out: % Inhibition 2): -6%
inhibition at 0.1 µM (JAK1; read-out: % Inhibition Avg): -8%
inhibition at 0.1 µM (CLK1; read-out: % Inhibition 1): 4%
inhibition at 0.1 µM (CLK1; read-out: % Inhibition 2): -7%
inhibition at 0.1 µM (CLK1; read-out: % Inhibition Avg): -2%
inhibition at 0.1 µM (GRK5; read-out: % Inhibition 1): -7%
inhibition at 0.1 µM (GRK5; read-out: % Inhibition 2): 0%
inhibition at 0.1 µM (GRK5; read-out: % Inhibition Avg): -4%
inhibition at 0.1 µM (AKT3 (PKB gamma); read-out: % Inhibition 1): 3%
inhibition at 0.1 µM (AKT3 (PKB gamma); read-out: % Inhibition 2): 1%
inhibition at 0.1 µM (AKT3 (PKB gamma); read-out: % Inhibition Avg): 2%
inhibition at 0.1 µM (CHEK1 (CHK1); read-out: % Inhibition 1): 10%
inhibition at 0.1 µM (CHEK1 (CHK1); read-out: % Inhibition 2): 2%
inhibition at 0.1 µM (CHEK1 (CHK1); read-out: % Inhibition Avg): 6%
inhibition at 0.1 µM (RPS6KB1 (p70S6K); read-out: % Inhibition 1): -3%
inhibition at 0.1 µM (RPS6KB1 (p70S6K); read-out: % Inhibition 2): -10%
inhibition at 0.1 µM (RPS6KB1 (p70S6K); read-out: % Inhibition Avg): -6%
inhibition at 0.1 µM (IRAK4; read-out: % Inhibition 1): 3%
inhibition at 0.1 µM (IRAK4; read-out: % Inhibition 2): -14%
inhibition at 0.1 µM (IRAK4; read-out: % Inhibition Avg): -6%
inhibition at 0.1 µM (CDK1/cyclin B; read-out: % Inhibition 1): 10%
inhibition at 0.1 µM (CDK1/cyclin B; read-out: % Inhibition 2): 3%
inhibition at 0.1 µM (CDK1/cyclin B; read-out: % Inhibition Avg): 6%
inhibition at 0.1 µM (ITK; read-out: % Inhibition 1): 17%
inhibition at 0.1 µM (ITK; read-out: % Inhibition 2): 12%
inhibition at 0.1 µM (ITK; read-out: % Inhibition Avg): 14%
inhibition at 0.1 µM (PI4KB (PI4K beta); read-out: % Inhibition 1): -3%
inhibition at 0.1 µM (PI4KB (PI4K beta); read-out: % Inhibition 2): 12%
inhibition at 0.1 µM (PI4KB (PI4K beta); read-out: % Inhibition Avg): 4%
inhibition at 0.1 µM ([1]; read-out: % Inhibition 1): 13%
inhibition at 0.1 µM ([1]; read-out: % Inhibition 2): 21%
inhibition at 0.1 µM ([1]; read-out: % Inhibition Avg): 17%
inhibition at 0.1 µM (CDK9/cyclin T1; read-out: % Inhibition 1): 7%
inhibition at 0.1 µM (CDK9/cyclin T1; read-out: % Inhibition 2): 5%
inhibition at 0.1 µM (CDK9/cyclin T1; read-out: % Inhibition Avg): 6%
